For this assay, the target named is T1, G12D-mutant human KRAS (amino acid residues 1-188) (Homo sapiens, UniProt P01116, G12D).
T1 construct: G12D or G12C-mutant human KRAS (amino acid residues 1-188) with FLAG tag; made in house; host or cells: E. coli
T1 sequence (P01116 1-188 isoform P01116-2 G12D): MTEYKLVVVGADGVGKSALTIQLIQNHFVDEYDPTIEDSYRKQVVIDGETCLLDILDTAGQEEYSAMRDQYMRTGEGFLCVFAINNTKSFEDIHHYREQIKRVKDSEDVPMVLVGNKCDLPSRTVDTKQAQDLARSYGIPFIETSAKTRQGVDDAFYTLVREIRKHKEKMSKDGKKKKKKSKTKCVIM
Briefly: KRAS Binding Disruption Assay (AlphaScreen; biotinylated KRpep-2d analogue or RAF1-RBD), G12D. Conditions: KRAS G12D; geometric mean; read-out: KRAS GMean IC50 (uM) MUTATION: G12D. The method in brief: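 Compounds are titrated against 5-20 nM mutant KRAS and 5-20 nM of either a biotinylated KRpep-2d analogue or RAF1-RBD, incubated 1 h at 25° C. Disruption is detected as reduced Alpha signal after 1 h with donor and acceptor beads at 10 μg/mL.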
`CCc1cccc2c1N(c1ncc3c(N4C[C@H]5CC[C@@H](C4)N5)nc(OCC45CCCN4CCC5)nc3c1F)CCC2` [P-0558, 4-((1R,5S)-3,8-diazabicyclo[3.2.1]octan-3-yl)-7-(8-ethyl-3,4-dihydroquinolin-1(2H)-yl)-8-fluoro-2-((tetrahydro-1H-pyrrolizin-7a(5H)-yl)methoxy)pyrido[4,3-d]pyrimidine]: the concentration for half-maximal inhibition (IC50) (in general, the point on the concentration scale where inhibition reaches its midpoint) was 0.0001 to 10 µM. The figure for `CCc1cccc2c1N(c1ccc3c(N4C[C@H]5CC[C@@H](C4)N5)nc(OCC45CCCN4CCC5)nc3c1F)CCC2` [P-0559, 4-((1R,5S)-3,8-diazabicyclo[3.2.1]octan-3-yl)-7-(8-ethyl-3,4-dihydroquinolin-1(2H)-yl)-8-fluoro-2-((tetrahydro-1H-pyrrolizin-7a(5H)-yl)methoxy)quinazoline] is 0.0001 to 10 µM; for `CCc1cccc2c1N(c1ccc3c(N4C[C@H]5CC[C@@H](C4)N5)nc(OC[C@@H]4CCCN4C)nc3c1F)CCC2` [P-0560, 4-((1R,5S)-3,8-diazabicyclo[3.2.1]octan-3-yl)-7-(8-ethyl-3,4-dihydroquinolin-1(2H)-yl)-8-fluoro-2-(((S)-1-methylpyrrolidin-2-yl)methoxy)quinazoline] it is 0.0001 to 10 µM. In the case of `Fc1cc(Cl)c2c(-c3ccc4c(N5C[C@H]6CC[C@@H](C5)N6)nc(OCC56CCCN5CCC6)nc4c3F)c[nH]c2c1` [P-0561, 4-((1R,5S)-3,8-diazabicyclo[3.2.1]octan-3-yl)-7-(4-chloro-6-fluoro-1H-indol-3-yl)-8-fluoro-2-((tetrahydro-1H-pyrrolizin-7a(5H)-yl)methoxy)quinazoline] it was 0.0001 to 10 µM; in that of `Oc1cc(-c2nc(N3C[C@H]4CC[C@@H](C3)N4)c3ccc(-c4cc(O)cc5ccccc45)c(F)c3n2)c2ccccc2c1` [P-0562, 4,4′-(4-((1R,5S)-3,8-diazabicyclo[3.2.1]octan-3-yl)-8-fluoroquinazoline-2,7-diyl)bis(naphthalen-2-ol)], 10 to 100 µM. In the case of `Oc1cc(-c2ccc3c(N4C[C@H]5CC[C@@H](C4)N5)nc(N4CC5(CCC(O)C5)C4)nc3c2F)c2ccccc2c1` (stereo partly drawn) [P-0563, 2-(4-((1R,5S)-3,8-diazabicyclo[3.2.1]octan-3-yl)-8-fluoro-7-(3-hydroxynaphthalen-1-yl)quinazolin-2-yl)-2-azaspiro[3.4]octan-6-ol] it was 0.0001 to 10 µM. For `OCCC1CN(c2nc(N3C[C@H]4CC[C@@H](C3)N4)c3ccc(-c4cc(O)cc5ccccc45)c(F)c3n2)C1` [P-0564, 4-(4-((1R,5S)-3,8-diazabicyclo[3.2.1]octan-3-yl)-8-fluoro-2-(3-(2-hydroxyethyl)azetidin-1-yl)quinazolin-7-yl)naphthalen-2-ol], the half-inhibitory concentration (IC50) fell in the range of 0.0001 to 10 µM. The figure for `CN(C)CC1CN(c2nc(N3C[C@H]4CC[C@@H](C3)N4)c3ccc(-c4cc(O)cc5ccccc45)c(F)c3n2)C1` [P-0565, 4-(4-((1R,5S)-3,8-diazabicyclo[3.2.1]octan-3-yl)-2-(3-((dimethylamino)methyl)azetidin-1-yl)-8-fluoroquinazolin-7-yl)naphthalen-2-ol] is 0.0001 to 10 µM; for `Fc1c(-c2c[nH]c3cncc(Cl)c23)ccc2c(N3C[C@H]4CC[C@@H](C3)N4)nc(OCC34CCCN3CCC4)nc12` [P-0566, 4-((1R,5S)-3,8-diazabicyclo[3.2.1]octan-3-yl)-7-(4-chloro-1H-pyrrolo[2,3-c]pyridin-3-yl)-8-fluoro-2-((tetrahydro-1H-pyrrolizin-7a(5H)-yl)methoxy)quinazoline] it is 0.0001 to 10 µM. In the case of `COCc1cccc2[nH]cc(-c3ccc4c(N5C[C@H]6CC[C@@H](C5)N6)nc(OCC56CCCN5CCC6)nc4c3F)c12` [P-0567, 4-((1R,5S)-3,8-diazabicyclo[3.2.1]octan-3-yl)-8-fluoro-7-(4-(methoxymethyl)-1H-indol-3-yl)-2-((tetrahydro-1H-pyrrolizin-7a(5H)-yl)methoxy)quinazoline] it was 0.0001 to 10 µM; in that of `CN(CC(C)(C)CO)c1nc(N2C[C@H]3CC[C@@H](C2)N3)c2ccc(-c3cc(O)cc4ccccc34)c(F)c2n1` [P-0568, 4-(4-((1R,5S)-3,8-diazabicyclo[3.2.1]octan-3-yl)-8-fluoro-2-((3-hydroxy-2,2-dimethylpropyl)(methyl)amino)quinaz-olin-7-yl)naphthalen-2-ol], 10 to 100 µM; in that of `OCC1(COc2nc(N3C[C@H]4CC[C@@H](C3)N4)c3ccc(-c4cc(O)cc5ccccc45)c(F)c3n2)CC2(CCC2)C1` [P-0569, 4-(4-((1R,5S)-3,8-diazabicyclo[3.2.1]octan-3-yl)-8-fluoro-2-((2-(hydroxymethyl)spiro[3.3]heptan-2-yl)methoxy)quinazolin-7-yl)naphthalen-2-ol], 0.0001 to 10 µM. Regarding `Fc1c(-c2cccc3cccc(Cl)c23)ccc2c(N3C[C@H]4CC[C@@H](C3)N4)nc(OCC34CCCN3CCC4)nc12` [P-0570, 4-((1R,5S)-3,8-diazabicyclo[3.2.1]octan-3-yl)-7-(8-chloronaphthalen-1-yl)-8-fluoro-2-((tetrahydro-1H-pyrrolizin-7a(5H)-yl)methoxy)quinazoline], the IC50 fell in the range of 0.0001 to 10 µM. In the case of `Fc1c(-c2cccc3cccc(Br)c23)ccc2c(N3C[C@H]4CC[C@@H](C3)N4)nc(OCC34CCCN3CCC4)nc12` [P-0571, 4-((1R,5S)-3,8-diazabicyclo[3.2.1]octan-3-yl)-7-(8-bromonaphthalen-1-yl)-8-fluoro-2-((tetrahydro-1H-pyrrolizin-7a(5H)-yl)methoxy)quinazoline] it was 0.0001 to 10 µM; in that of `Fc1c(-c2cncc3cccc(Cl)c23)ccc2c(N3C[C@H]4CC[C@@H](C3)N4)nc(OCC34CCCN3CCC4)nc12` [P-0572, 4-((1R,5S)-3,8-diazabicyclo[3.2.1]octan-3-yl)-7-(5-chloroisoquinolin-4-yl)-8-fluoro-2-((tetrahydro-1H-pyrrolizin-7a(5H)-yl)methoxy)quinazoline], 0.0001 to 10 µM. In the case of `COCCc1cccc2[nH]cc(-c3ccc4c(N5C[C@H]6CC[C@@H](C5)N6)nc(OCC56CCCN5CCC6)nc4c3F)c12` [P-0573, 4-((1R,5S)-3,8-diazabicyclo[3.2.1]octan-3-yl)-8-fluoro-7-(4-(2-methoxyethyl)-1H-indol-3-yl)-2-((tetrahydro-1H-pyrrolizin-7a(5H)-yl)methoxy)quinazoline] it was 0.0001 to 10 µM; in that of `OCc1cccc2[nH]cc(-c3ccc4c(N5C[C@H]6CC[C@@H](C5)N6)nc(OCC56CCCN5CCC6)nc4c3F)c12` [P-0574, (3-(4-((1R,5S)-3,8-diazabicyclo[3.2.1]octan-3-yl)-8-fluoro-2-((tetrahydro-1H-pyrrolizin-7a(5H)-yl)methoxy)quinazolin-7-yl)-1H-indol-4-yl)methanol], 0.0001 to 10 µM; in that of `CC(C)C(COC(=O)C(F)(F)F)COc1nc(N2C[C@H]3CC[C@@H](C2)N3)c2ccc(-c3cc(O)cc4ccccc34)c(F)c2n1` (stereo partly drawn) [P-0575, 2-(((4-((1R,5S)-3,8-diazabicyclo[3.2.1]octan-3-yl)-8-fluoro-7-(3-hydroxynaphthalen-1-yl)quinazolin-2-yl)oxy)methyl)-3-methylbutyl 2,2,2-trifluoroacetate], 0.0001 to 10 µM. The figure for `OCC1(C(F)(F)F)CCN(c2nc(N3C[C@H]4CC[C@@H](C3)N4)c3ccc(-c4cc(O)cc5ccccc45)c(F)c3n2)C1` (stereo partly drawn) [P-0576, 4-(4-((1R,5S)-3,8-diazabicyclo[3.2.1]octan-3-yl)-8-fluoro-2-(3-(hydroxymethyl)-3-(trifluoromethyl)pyrrolidin-1-yl)quinazolin-7-yl)naphthalen-2-ol] is 0.0001 to 10 µM; for `NC1(CO)CN(c2nc(N3C[C@H]4CC[C@@H](C3)N4)c3ccc(-c4cc(O)cc5ccccc45)c(F)c3n2)C1` [P-0577, 4-(2-(3-amino-3-(hydroxymethyl)azetidin-1-yl)-4-((1R,5S)-3,8-diazabicyclo[3.2.1]octan-3-yl)-8-fluoroquinazolin-7-yl)naphthalen-2-ol] it is 0.0001 to 10 µM.

With `CCC1(N)CN(c2nc(N3C[C@H]4CC[C@@H](C3)N4)c3ccc(-c4cc(O)cc5ccccc45)c(F)c3n2)C1` [P-0578, 4-(2-(3-amino-3-ethylazetidin-1-yl)-4-((1R,5S)-3,8-diazabicyclo[3.2.1]octan-3-yl)-8-fluoroquinazolin-7-yl)naphthalen-2-ol], the half-maximal inhibitory concentration (IC50) was 0.0001 to 10 µM.

As for `OCC1(CNc2nc(N3C[C@H]4CC[C@@H](C3)N4)c3ccc(-c4cc(O)cc5ccccc45)c(F)c3n2)CC(F)(F)C1` [P-0579, 4-(4-((1R,5S)-3,8-diazabicyclo[3.2.1]octan-3-yl)-2-(((3,3-difluoro-1-(hydroxymethyl)cyclobutyl)methyl)amino)-8-fluoroquinazolin-7-yl)naphthalen-2-ol], the half-maximal inhibitory concentration (IC50) lay in the range of 0.0001 to 10 µM. The figure for `NCC1(COc2nc(N3C[C@H]4CC[C@@H](C3)N4)c3ccc(-c4cc(O)cc5ccccc45)c(F)c3n2)CC(F)(F)C1` [P-0580, 4-(2-((1-(aminomethyl)-3,3-difluorocyclobutyl)methoxy)-4-((1R,5S)-3,8-diazabicyclo[3.2.1]octan-3-yl)-8-fluoroquinazolin-7-yl)naphthalen-2-ol] is 0.0001 to 10 µM; for `OCC1(CNc2nc(N3C[C@H]4CC[C@@H](C3)N4)c3ccc(-c4cc(O)cc5ccccc45)c(F)c3n2)COC1` [P-0581, 4-(4-((1R,5S)-3,8-diazabicyclo[3.2.1]octan-3-yl)-8-fluoro-2-(((3-(hydroxymethyl)oxetan-3-yl)methyl)amino)quinazolin-7-yl)naphthalen-2-ol] it is 0.0001 to 10 µM; for `OCC1(CNc2nc(N3C[C@H]4CC[C@@H](C3)N4)c3ccc(-c4cc(O)cc5ccccc45)c(F)c3n2)CC1` [P-0582, 4-(4-((1R,5S)-3,8-diazabicyclo[3.2.1]octan-3-yl)-8-fluoro-2-(((1-(hydroxymethyl)cyclopropyl)methyl)amino)quinazolin-7-yl)naphthalen-2-ol] it is 0.0001 to 10 µM.

The values above are taken from patent publication US20230081426A1, “COMPOUNDS AND METHODS FOR KRAS MODULATION AND INDICATIONS THEREFOR” (Plexxikon Inc., priority 2020, published 2023).
